Laboratory results taken from ChEMBL document CHEMBL1148430, “Synthesis of novel 2-nitroimidazole-tethered tricyclic quinolines, bearing a second heteroatom, and their in vitro evaluation as hypoxia-selective cytotoxins and radiosensitizers” (Bioorg Med Chem Lett, 2004).

Tests used:
[1] = Partition coefficient in octanol/water; format: physicochemical
[2] = test system: V79; experiment: Cytotoxicity of compound was measured against suspended V79 cells under aerobic conditions in clonogenic assay; format: functional, Cricetulus griseus
[3] = test system: V79; experiment: Cytotoxicity of compound was measured against suspended V79 cells under hypoxic conditions in clonogenic assay; format: functional, Cricetulus griseus
[4] = In vitro therapeutic index of compound was measured inV79 cells; format: cell-based, Cricetulus griseus; conditions: chinese hamster, V79 cells; read-out: T.I.
[5] = Concentration required to reduce fluorescence in ethidium bromide displacement assay using EB-DNA complex
[6] = Ratio (HS) of CT50 values in aerobic condition to hypoxic condition (in N2 presence) given as CT50(A)/CT50(H); format: functional

SMILES | PC [1] | CT50 [2] [µM] | CT50 [3] [µM] | selectivity ratio [4] | C50 [5] [µM] | Ratio [6]
Cl.O=[N+]([O-])c1nccn1CCCNc1c2c(nc3ccccc13)CCCC2 | 0.14 | 360 | 33 | 20 | 58 | 11
Cl.O=[N+]([O-])c1nccn1CCCNc1c2ccccc2nc2ccccc12 | 0.07 | 84 | 15 | 11 | 9 | 5.5
Cl.O=[N+]([O-])c1nccn1CCCNc1c2c(nc3ccccc13)CCSC2 | 0.4 | 580 | 68 | 15 | 58 | 9
CN1CCc2nc3ccccc3c(NCCCn3ccnc3[N+](=O)[O-])c2C1.Cl | 0.41 | 426 | – | 7 | 45 | 2.2
